Molecular target: T1, human P2Y12 receptor (Homo sapiens, UniProt Q9H244)
T1 construct: expressed in transfected cells; host or cells: Chinese Hamster Ovary (CHO) cells
Experiment: P2Y12 receptor binding assay
Conditions: CHO cells with recombinant human P2Y12 receptor; tritium-labeled 2-methyl-S-ADP; 2 hours at RT
Method: Chinese Hamster Ovary (CHO) cells with recombinant expression of the human P2Y12 receptor were cultured in 24 well cell-culture plates. Cells were washed three times with binding buffer (50 mM Tris pH 7.4, 100 mM NaCl, […], 0.5% BSA). The cells were then incubated with 0.5 ml per well binding buffer containing tritium-labeled 2-methyl-thio-adenosine 5′-diphosphate (2-methyl-S-ADP) (between 100,000 and 300,000 dpm per well) and various concentrations of test compounds. After incubation at RT for 2 hours, cells were washed three times with binding buffer. Then, cells were solubilized by addition of 0.5 ml solubilization buffer (SDS, NaOH, EDTA). The content of each well was then transferred into beta-counter vials and 2.0 ml of Ultima Gold Scintillation liquid was added.

T1 sequence (Q9H244 whole entry): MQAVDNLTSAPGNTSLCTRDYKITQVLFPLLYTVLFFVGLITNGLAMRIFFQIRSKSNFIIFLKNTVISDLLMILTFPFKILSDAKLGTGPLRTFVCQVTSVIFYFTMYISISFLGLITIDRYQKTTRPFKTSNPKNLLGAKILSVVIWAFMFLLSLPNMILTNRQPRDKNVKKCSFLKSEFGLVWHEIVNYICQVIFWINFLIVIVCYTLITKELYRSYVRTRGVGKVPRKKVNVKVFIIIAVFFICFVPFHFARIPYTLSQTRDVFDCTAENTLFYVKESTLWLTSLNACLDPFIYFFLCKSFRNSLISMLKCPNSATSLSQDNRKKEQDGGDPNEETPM

Row | Structure (SMILES) | IC50 [nM]
1 | CCCCOC(=O)N1CCN(C(=O)[C@H](CP(=O)(N[C@H](C(=O)OC)c2ccccc2)N[C@H](C(=O)OC)c2ccccc2)NC(=O)c2cc(N3CC[C@H](OC)C3)nc(-c3ccccc3)n2)CC1 [Example 88, N,N′-Bis-((S)-1-methoxycarbonyl-1-phenyl-methyl)-2-{(R)-[6-((S)-3-methoxy-pyrrolidin-1-yl)-2-phenyl-pyrimidine-4-carbonyl]-amino}-3-oxo-3-(4-butoxy-carbonyl-piperazin-1-yl)-propyl-phosphonic acid diamide] | 22
2 | CCCCOC(=O)N1CCN(C(=O)[C@H](CP(=O)(N[C@@H](C)C(=O)OC)N[C@@H](C)C(=O)OC)NC(=O)c2cc(N3CC[C@H](OC)C3)nc(-c3ccccc3)n2)CC1 [Example 89, N,N′-Bis-((S)-1-methoxycarbonyl-ethyl)-2-{(R)-[6-((S)-3-methoxy-pyrrolidin-1-yl)-2-phenyl-pyrimidine-4-carbonyl]-amino}-3-oxo-3-(4-butoxy-carbonyl-piperazin-1-yl)-propyl-phosphonic acid diamide] | 162
3 | CCCCOC(=O)N1CCN(C(=O)[C@H](CP(=O)(NC(C)(C)C(=O)OCC)NC(C)(C)C(=O)OCC)NC(=O)c2cc(N3CC[C@H](OC)C3)nc(-c3ccccc3)n2)CC1 [Example 92, N,N′-Bis-(2-ethoxycarbonyl-prop-2-yl)-2-{(R)-[6-((S)-3-methoxy-pyrrolidin-1-yl)-2-phenyl-pyrimidine-4-carbonyl]-amino}-3-oxo-3-(4-butoxy-carbonyl-piperazin-1-yl)-propyl-phosphonic acid diamide] | 42
4 | CCCCOC(=O)N1CCN(C(=O)[C@H](CP(=O)(OCc2oc(=O)oc2C)OCc2oc(=O)oc2C)NC(=O)c2cc(N3CC[C@H](OC)C3)nc(-c3ccccc3)n2)CC1 [Example 101, 4-((R)-3-[Bis-(5-methyl-2-oxo-[1,3]dioxol-4-ylmethoxy)-phosphoryl]-2-{[6-((S)-3-methoxy-pyrrolidin-1-yl)-2-phenyl-pyrimidine-4-carbonyl]-amino}-propionyl)-piperazine-1-carboxylic acid butyl ester] | 3.2
5 | CCCCOC(=O)N1CCN(C(=O)[C@H](CP2(=O)OCCCO2)NC(=O)c2cc(N3CC[C@H](OC)C3)nc(-c3ccccc3)n2)CC1 [Example 109, 4-[(R)-2-{[6-((S)-3-Methoxy-pyrrolidin-1-yl)-2-phenyl-pyrimidine-4-carbonyl]-amino}-3-(2-oxo-2λ^5-[1,3,2]dioxaphosphinan-2-yl)-propionyl]piperazine-1-carboxylic acid butyl ester] | 208

Continued, values first:

Row | IC50 [nM] | Structure (SMILES)
6 | 3.5 | CCCCOC(=O)N1CCN(C(=O)[C@H](CP(=O)(OCOC(=O)OC)OCOC(=O)OC)NC(=O)c2cc(N3CC[C@H](OC)C3)nc(-c3ccccc3)n2)CC1 [Example 93, 4-((R)-3-[Bis-(methoxycarbonyloxy-methoxy)-phosphoryl]-2-{[6-((S)-3-methoxy-pyrrolidin-1-yl)-2-phenyl-pyrimidine-4-carbonyl]-amino}-propionyl)-piperazine-1-carboxylic acid butyl ester]
7 | 34 | CCCCOC(=O)N1CCN(C(=O)[C@H](CP(=O)(OCOC(=O)OC(C)C)OCOC(=O)OC(C)C)NC(=O)c2cc(N3CC[C@H](OC)C3)nc(-c3ccccc3)n2)CC1 [Example 95, 4-((R)-3-[Bis-(isopropoxycarbonyloxy-methoxy)-phosphoryl]-2-{[6-((S)-3-methoxy-pyrrolidin-1-yl)-2-phenyl-pyrimidine-4-carbonyl]-amino}-propionyl)-piperazine-1-carboxylic acid butyl ester]
8 | 153 | CCCCOC(=O)N1CCN(C(=O)[C@H](CP(=O)(O[C@@H](C)C(=O)OCC)O[C@@H](C)C(=O)OCC)NC(=O)c2cc(N3CC[C@H](OC)C3)nc(-c3ccccc3)n2)CC1 [Example 107, 4-((R)-3-[Bis-((S)-1-ethoxycarbonyl-ethoxy)-phosphoryl]-2-{[6-((S)-3-methoxy-pyrrolidin-1-yl)-2-phenyl-pyrimidine-4-carbonyl]-amino}-propionyl)-piperazine-1-carboxylic acid butyl ester]

From US8518912B2, “Phosphonic acid derivates and their use as P2Y12 receptor antagonists” (Actelion Pharmaceuticals Ltd., priority 2008, dated 2013)
